The target of test [1] is intracellular GCN2 (phosphorylation of the GCN2 substrate eIF2α) (Homo sapiens, UniProt Q9P2K8). Put plainly: GCN2 cellular inhibition assay (AlphaScreen SureFire P-eIF2α Ser51, borrelidin-treated U2OS cells). It counts as cell-based. The following applies: biomarker assay, phosphorylated eIF2α Ser51 in borrelidin-treated U2OS cells. A digest of the protocol: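 U2OS, overnight attach; cpd 4-fold serial dil. from 40 μM final; borrelidin 10 μM, 1 h 37 °C/5% CO2; lyse; AlphaScreen P-eIF2α Ser51 (acceptor 2 h, donor overnight, RT, dark); % inhib. vs borrelidin-only.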
Background: Alpha assays give light when donor and acceptor beads are brought close together.

The target of the next test is GCN2 kinase (Homo sapiens, UniProt Q9P2K8). Briefly: GCN2 enzyme inhibition assay (Transcreener ADP2 fluorescence polarization). The format is biochemical. The settings on record: 280 μM ATP. A digest of the protocol: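 Kinase activity is followed as ADP formation, measured by fluorescence polarization, using 4 nM enzyme with 280 μM ATP and 200 μM (RS)7 peptide at pH 7.5 and 25 °C for 1 h. Values come from a non-linear tight-binding fit.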
Background: In fluorescence polarisation assays a small probe gives low polarisation when free and higher when bound to something large.

[2] abbreviates: compounds of Formula II, 4 nM GCN2 kinase.
The mark [3] stands for this setting: Enzyme activity for compounds of Formula IV, Ki(app), 25° C.

Chain of GCN2 kinase (Q9P2K8 whole entry): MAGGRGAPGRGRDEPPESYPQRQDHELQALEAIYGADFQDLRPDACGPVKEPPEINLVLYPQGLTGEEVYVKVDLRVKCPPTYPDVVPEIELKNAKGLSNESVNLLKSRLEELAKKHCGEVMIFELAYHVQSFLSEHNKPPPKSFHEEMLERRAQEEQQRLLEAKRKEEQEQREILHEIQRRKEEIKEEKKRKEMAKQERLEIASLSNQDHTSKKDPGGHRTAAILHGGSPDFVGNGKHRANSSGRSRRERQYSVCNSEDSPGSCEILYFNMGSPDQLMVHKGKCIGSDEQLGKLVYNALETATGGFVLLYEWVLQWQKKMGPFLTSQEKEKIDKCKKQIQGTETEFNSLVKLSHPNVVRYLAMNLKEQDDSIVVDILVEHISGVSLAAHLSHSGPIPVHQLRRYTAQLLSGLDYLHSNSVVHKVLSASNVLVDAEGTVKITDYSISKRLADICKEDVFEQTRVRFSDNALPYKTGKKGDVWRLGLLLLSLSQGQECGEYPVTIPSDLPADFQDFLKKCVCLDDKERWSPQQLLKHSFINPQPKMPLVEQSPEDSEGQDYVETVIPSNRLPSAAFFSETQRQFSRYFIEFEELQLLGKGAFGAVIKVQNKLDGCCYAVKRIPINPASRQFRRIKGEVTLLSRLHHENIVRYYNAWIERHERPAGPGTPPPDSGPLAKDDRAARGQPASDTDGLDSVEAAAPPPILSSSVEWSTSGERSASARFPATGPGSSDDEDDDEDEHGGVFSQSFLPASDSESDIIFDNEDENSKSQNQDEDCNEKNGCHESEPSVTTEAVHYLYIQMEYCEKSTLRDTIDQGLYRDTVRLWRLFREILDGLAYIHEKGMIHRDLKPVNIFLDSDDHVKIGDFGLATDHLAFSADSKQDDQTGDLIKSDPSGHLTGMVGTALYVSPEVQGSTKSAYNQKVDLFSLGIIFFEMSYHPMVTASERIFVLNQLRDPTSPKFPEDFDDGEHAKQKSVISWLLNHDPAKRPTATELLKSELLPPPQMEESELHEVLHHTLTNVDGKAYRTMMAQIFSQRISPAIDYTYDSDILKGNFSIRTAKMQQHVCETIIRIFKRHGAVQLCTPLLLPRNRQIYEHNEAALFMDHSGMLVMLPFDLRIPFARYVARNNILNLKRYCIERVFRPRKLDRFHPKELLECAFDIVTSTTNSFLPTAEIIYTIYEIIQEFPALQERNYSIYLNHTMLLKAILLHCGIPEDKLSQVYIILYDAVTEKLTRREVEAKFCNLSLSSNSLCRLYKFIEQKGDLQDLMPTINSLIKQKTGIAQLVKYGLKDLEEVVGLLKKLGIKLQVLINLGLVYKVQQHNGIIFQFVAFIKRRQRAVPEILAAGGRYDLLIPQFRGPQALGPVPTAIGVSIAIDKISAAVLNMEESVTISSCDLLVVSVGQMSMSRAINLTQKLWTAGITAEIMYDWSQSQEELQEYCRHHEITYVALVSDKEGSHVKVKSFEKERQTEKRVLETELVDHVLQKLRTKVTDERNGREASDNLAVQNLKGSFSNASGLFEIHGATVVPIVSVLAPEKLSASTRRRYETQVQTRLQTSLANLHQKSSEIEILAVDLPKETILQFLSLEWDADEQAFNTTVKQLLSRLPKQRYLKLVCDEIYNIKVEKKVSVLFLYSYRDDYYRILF
Chain of intracellular GCN2 (phosphorylation of the GCN2 substrate eIF2α) (Q9P2K8 whole entry): as above

Turning to `CS(=O)(=O)N1CCCC2(CN(c3cc(-c4cnc5ccc(C(F)F)nn45)ncn3)CCO2)C1` (stereo not drawn) [II-288, 4-(6-(6-(Difluoromethyl)imidazo[1,2-b]pyridazin-3-yl)pyrimidin-4-yl)-8-(methylsulfonyl)-1-oxa-4,8-diazaspiro[5.5]undecane], the IC50 (usually the concentration at which inhibition is half-maximal) in test [1] (compounds of Formula II) was over 5000 nM. In addition, on GCN2 kinase (setting [2]), the Ki is 10 to 1000 nM.

Consider `Cc1ccc2ncc(-c3ccnc(N4CCCC(CNS(C)(=O)=O)C4)c3)n2n1` (stereo not drawn) [II-183, N-((1-(4-(6-Methylimidazo[1,2-b]pyridazin-3-yl)pyridin-2-yl)piperidin-3-yl)methyl)methanesulfonamide], for which the 50% inhibitory concentration (IC50) in test [1] (compounds of Formula II) is 500 to 5000 nM. Moreover, the Ki on GCN2 kinase (setting [2]) fell in the range of 10 to 1000 nM.

In test [1] (compounds of Formula II), `FC(F)c1ccc2ncc(-c3cc(C4=CCOCC4)ncn3)n2n1` [II-357, 6-(Difluoromethyl)-3-(6-(3,6-dihydro-2H-pyran-4-yl)pyrimidin-4-yl)imidazo[1,2-b]pyridazine] gave an IC50 of over 5000 nM. This compound came in with a Ki on GCN2 kinase (setting [2]) of 10 to 1000 nM.

`CC1CN(c2ccnc(-c3cnc4cnc(Cl)cn34)n2)CC(c2cn[nH]c2)O1` (single isomer, unassigned) [IV-192, 4-(2-(6-Chloroimidazo[1,2-a]pyrazin-3-yl)pyrimidin-4-yl)-2-methyl-6-(1H-pyrazol-4-yl)morpholine]: the IC50 in test [1] (compounds of Formula IV) lay within 500 to 5000 nM. For the same compound, on GCN2 kinase (setting [3]), the Ki was under 10 nM.

For `OCc1cccc(-c2ccnc(-c3cnc4cnc(C(F)F)cn34)n2)c1` [IV-162, (3-(2-(6-(Difluoromethyl)imidazo[1,2-a]pyrazin-3-yl)pyrimidin-4-yl)phenyl)methanol], the IC50 in test [1] (compounds of Formula IV) was over 5000 nM. This compound had a Ki on GCN2 kinase (setting [3]) of 100 to 1000 nM.

As for `FC(F)OC1CC(c2cn[nH]c2)CN(c2ccnc(-c3cnc4cnc(C(F)(F)F)cn34)n2)C1` (stereo not drawn) [IV-472, 3-(4-(3-(Difluoromethoxy)-5-(1H-pyrazol-4-yl)piperidin-1-yl)pyrimidin-2-yl)-6-(trifluoromethyl)imidazo[1,2-a]pyrazine], in test [1] (compounds of Formula IV), the IC50 is 500 to 5000 nM. The compound also had a Ki on GCN2 kinase (setting [3]) of 10 to 100 nM.

As for `CS(=O)(=O)NCC1CN(c2cc(-c3cnc4cccnn34)ccn2)CCO1` (stereo not drawn) [II-732, N-((4-(4-(imidazo[1,2-b]pyridazin-3-yl)pyridin-2-yl)morpholin-2-yl)methyl)methanesulfonamide], the IC50 in test [1] (compounds of Formula II) was over 5000 nM. Further, at GCN2 kinase (setting [2]), the Ki is over 1000 nM.

For `Cc1cnc(N2CCCC(CNS(C)(=O)=O)C2)cc1-c1cnc2ccc(C(F)F)nn12` (stereo not drawn) [II-733, N-((1-(4-(6-(difluoromethyl)imidazo[1,2-b]pyridazin-3-yl)-5-methylpyridin-2-yl)piperidin-3-yl)methyl)methanesulfonamide], the IC50 in test [1] (compounds of Formula II) was over 5000 nM. Moreover, the Ki on GCN2 kinase (setting [2]) is over 1000 nM.

Regarding `FC(F)(F)c1cn2c(-c3nccc(N4CCCC(C5CNC5)C4)n3)cnc2cn1` (stereo not drawn) [IV-696, 3-(4-(3-(Azetidin-3-yl)piperidin-1-yl)pyrimidin-2-yl)-6-(trifluoromethyl)imidazo[1,2-a]pyrazine], the IC50 in test [1] (compounds of Formula IV) is over 5000 nM. Also, the Ki on GCN2 kinase (setting [3]) is 100 to 1000 nM.

With `Fc1n[nH]cc1C1CCN(c2ccnc(-c3cnc4cnc(C(F)(F)F)cn34)n2)C1` (stereo not drawn) [IV-524, 3-(4-(3-(3-Fluoro-1H-pyrazol-4-yl)pyrrolidin-1-yl)pyrimidin-2-yl)-6-(trifluoromethyl)imidazo[1,2-a]pyrazine], the IC50 in test [1] (compounds of Formula IV) was under 500 nM. Besides, the Ki at GCN2 kinase (setting [3]) is under 10 nM.

Compound `CC1(c2n[nH]cc2C2CCN(c3ccnc(-c4cnc5cnc(C(F)(F)F)cn45)n3)C2)CC1` (stereo not drawn) [IV-630, 3-(4-(3-(3-(1-Methylcyclopropyl)-1H-pyrazol-4-yl)pyrrolidin-1-yl)pyrimidin-2-yl)-6-(trifluoromethyl)imidazo[1,2-a]pyrazine] gave an IC50 in test [1] (compounds of Formula IV) of over 5000 nM. At GCN2 kinase (setting [3]), this compound came in with a Ki of 10 to 100 nM.

`CC1C(CNS(C)(=O)=O)OCCN1c1cc(-c2cnc3ccc(C(F)F)nn23)ncn1` (single isomer, unassigned) [II-372, N-((4-(6-(6-(Difluoromethyl)imidazo[1,2-b]pyridazin-3-yl)pyrimidin-4-yl)-3-methylmorpholin-2-yl)methyl)methanesulfonamide]: the IC50 in test [1] (compounds of Formula II) was over 5000 nM. The compound also displayed a Ki at GCN2 kinase (setting [2]) of over 1000 nM.

For `CC1CC(CNS(C)(=O)=O)CN(c2cc(-c3cnc4ccc(C(F)F)nn34)ncn2)C1` (stereo not drawn) [II-397, N-((1-(6-(6-(Difluoromethyl)imidazo[1,2-b]pyridazin-3-yl)pyrimidin-4-yl)-5-methylpiperidin-3-yl)methyl)methanesulfonamide], the IC50 in test [1] (compounds of Formula II) is under 500 nM. At GCN2 kinase (setting [2]), the Ki is under 10 nM.

`CC1CN(c2nccc(-c3cnc4cnc(C(F)(F)F)cn34)n2)CC(c2cn[nH]c2)O1` (single isomer, unassigned) [IV-199, 2-Methyl-6-(1H-pyrazol-4-yl)-4-(4-(6-(trifluoromethyl)imidazo[1,2-a]pyrazin-3-yl)pyrimidin-2-yl)morpholine] showed an IC50 in test [1] (compounds of Formula IV) of 500 to 5000 nM. Also, at GCN2 kinase (setting [3]), the Ki was 10 to 100 nM.

`CCC1CC(N=S(C)(C)=O)CN(c2cc(-c3cnc4ccc(C(F)F)nn34)ncn2)C1` (single isomer, unassigned) [II-650, ((1-(6-(6-(Difluoromethyl)imidazo[1,2-b]pyridazin-3-yl)pyrimidin-4-yl)-5-ethylpiperidin-3-yl)imino)dimethyl-λ^6-sulfanone] showed an IC50 in test [1] (compounds of Formula II) of under 500 nM. At GCN2 kinase (setting [2]), the Ki was under 10 nM.

Take `CNS(=O)(=O)C1CCCN(c2ccnc(-c3cnc4cnc(C(F)F)cn34)n2)C1` (stereo not drawn) [IV-164, 1-(2-(6-(Difluoromethyl)imidazo[1,2-a]pyrazin-3-yl)pyrimidin-4-yl)-N-methylpiperidine-3-sulfonamide]: in test [1] (compounds of Formula IV), the IC50 was over 5000 nM. The same compound registered a Ki at GCN2 kinase (setting [3]) of 100 to 1000 nM.

`CS(=O)(=O)N[C@H]1CCCN(c2cc(-c3cnc4ccc(C(F)F)nn34)ncn2)C1` (single isomer, unassigned) [II-404] came in with an IC50 in test [1] (compounds of Formula II) of 500 to 5000 nM. This compound also displayed a Ki at GCN2 kinase (setting [2]) of 10 to 1000 nM.

In test [1] (compounds of Formula II), `CC1C(CS(C)(=N)=O)CCCN1c1cc(-c2cnc3ccc(C(F)F)nn23)ncn1` (stereo not drawn) [II-486, ((1-(6-(6-(Difluoromethyl)imidazo[1,2-b]pyridazin-3-yl)pyrimidin-4-yl)-2-methylpiperidin-3-yl)methyl)(imino)(methyl)-λ^6-sulfanone] had an IC50 of 500 to 5000 nM. The compound also came in with a Ki on GCN2 kinase (setting [2]) of 10 to 1000 nM.

`CC1CN(c2cc(-c3cnc4ccc(C(F)(F)F)nn34)ncn2)CC(CNS(C)(=O)=O)C1(F)F` (stereo not drawn) [II-293, N-((4,4-Difluoro-5-methyl-1-(6-(6-(trifluoromethyl)imidazo[1,2-b]pyridazin-3-yl)pyrimidin-4-yl)piperidin-3-yl)methyl)methanesulfonamide] had an IC50 in test [1] (compounds of Formula II) of 500 to 5000 nM. On GCN2 kinase (setting [2]), this compound had a Ki of 10 to 1000 nM.

Regarding `CC1CC(CS(C)(=N)=O)C(C)N(c2ccnc(-c3cnc4cnc(C(F)F)cn34)n2)C1` (single isomer, unassigned) [IV-368, ((1-(2-(6-(Difluoromethyl)imidazo[1,2-a]pyrazin-3-yl)pyrimidin-4-yl)-2,5-dimethylpiperidin-3-yl)methyl)(imino)(methyl)-λ^6-sulfanone], the IC50 in test [1] (compounds of Formula IV) was over 5000 nM. The Ki on GCN2 kinase (setting [3]) fell in the range of 100 to 1000 nM.

Consider `FC(F)(F)c1cn2c(-c3nccc(N4CCCC(c5cn[nH]n5)C4)n3)cnc2cn1` (stereo not drawn) [IV-378, 3-(4-(3-(2H-1,2,3-Triazol-4-yl)piperidin-1-yl)pyrimidin-2-yl)-6-(trifluoromethyl)imidazo[1,2-a]pyrazine], for which, in test [1] (compounds of Formula IV), the IC50 was under 500 nM. In addition, the Ki at GCN2 kinase (setting [3]) is under 10 nM.

For `CN1CCN(c2cc(-c3cnc4ccc(C(F)F)nn34)ccn2)CC1CNS(C)(=O)=O` (stereo not drawn) [II-98, N-((4-(4-(6-(Difluoromethyl)imidazo[1,2-b]pyridazin-3-yl)pyridin-2-yl)-1-methylpiperazin-2-yl)methyl)methanesulfonamide], the IC50 in test [1] (compounds of Formula II) is 500 to 5000 nM. On GCN2 kinase (setting [2]), this compound displayed a Ki of 10 to 1000 nM.

In test [1] (compounds of Formula II), `CS(=O)(=O)C1CCCN(c2cc(-c3cnc4ccc(C(F)F)nn34)ncn2)C1` (stereo not drawn) [II-19, 6-(Difluoromethyl)-3-(6-(3-(methylsulfonyl)piperidin-1-yl)pyrimidin-4-yl)imidazo[1,2-b]pyridazine] came in with an IC50 of 500 to 5000 nM. The compound further showed a Ki at GCN2 kinase (setting [2]) of 10 to 1000 nM.

In test [1] (compounds of Formula IV), `Fc1n[nH]cc1C1CCN(c2ccnc(-c3cnc4cnc(C(F)(F)F)cn34)n2)C1` (single isomer, unassigned) [IV-563, 3-(4-(3-(3-Fluoro-1H-pyrazol-4-yl)pyrrolidin-1-yl)pyrimidin-2-yl)-6-(trifluoromethyl)imidazo[1,2-a]pyrazine] yielded an IC50 of 500 to 5000 nM. The Ki at GCN2 kinase (setting [3]) was under 10 nM.

In test [1] (compounds of Formula II), `CS(=O)(=O)NOC1CCCN(c2cc(-c3cnc4ccc(C(F)F)nn34)ccn2)C1` (stereo not drawn) [II-124, N-((1-(4-(6-(Difluoromethyl)imidazo[1,2-b]pyridazin-3-yl)pyridin-2-yl)piperidin-3-yl)oxy)methanesulfonamide] gave an IC50 of 500 to 5000 nM. On GCN2 kinase (setting [2]), the Ki was under 10 nM.

In test [1] (compounds of Formula II), `CS(=O)(=O)NCC1CCCN(c2cc(-c3cnc4ccc(C(F)F)nn34)ccn2)C1` (stereo not drawn) [II-157, N-((1-(4-(6-(Difluoromethyl)imidazo[1,2-b]pyridazin-3-yl)pyridin-2-yl)piperidin-3-yl)methyl)methanesulfonamide] came in with an IC50 of under 500 nM. In addition, the Ki on GCN2 kinase (setting [2]) was under 10 nM.

Take `O=C(NC1CC1)NC1CCN(c2cc(-c3cnc4ccc(C(F)F)nn34)ncn2)C1` (stereo not drawn) [II-216, 1-Cyclopropyl-3-(1-(6-(6-(difluoromethyl)imidazo[1,2-b]pyridazin-3-yl)pyrimidin-4-yl)pyrrolidin-3-yl)urea]: the IC50 in test [1] (compounds of Formula II) is over 5000 nM. The Ki on GCN2 kinase (setting [2]) lay within 10 to 1000 nM.

Values taken from patent US10988477B2 (Merck Patent GmbH, priority 2018, dated 2021).
